Reference: publication PMC9552247 (Addiction biology, 2022)

Target: human DAT (CHO-DAT) (Homo sapiens, UniProt Q01959)
Settings: labelled compound, 60 nM, pH 7.4, 37°C

Chain of human DAT (CHO-DAT) (Q01959 whole entry): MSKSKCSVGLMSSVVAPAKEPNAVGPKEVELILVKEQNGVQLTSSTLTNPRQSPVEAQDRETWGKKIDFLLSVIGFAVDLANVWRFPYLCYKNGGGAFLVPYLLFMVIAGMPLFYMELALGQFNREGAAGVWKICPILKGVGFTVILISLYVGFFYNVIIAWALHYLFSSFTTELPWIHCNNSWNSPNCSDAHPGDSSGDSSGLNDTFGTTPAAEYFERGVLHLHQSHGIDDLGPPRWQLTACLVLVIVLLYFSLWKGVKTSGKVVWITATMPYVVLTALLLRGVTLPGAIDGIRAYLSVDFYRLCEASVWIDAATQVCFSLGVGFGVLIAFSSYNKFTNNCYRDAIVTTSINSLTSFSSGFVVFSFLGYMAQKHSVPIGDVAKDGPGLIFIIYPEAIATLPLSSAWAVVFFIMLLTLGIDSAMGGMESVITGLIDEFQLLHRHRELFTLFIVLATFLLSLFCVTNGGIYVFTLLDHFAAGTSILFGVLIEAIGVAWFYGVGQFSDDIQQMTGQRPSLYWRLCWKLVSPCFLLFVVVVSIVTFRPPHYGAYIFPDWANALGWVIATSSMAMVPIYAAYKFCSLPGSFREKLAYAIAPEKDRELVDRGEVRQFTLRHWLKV

SMILES: NCCc1ccc(O)c(O)c1 [dopamine]
- [3H]-dopamine uptake in CHO-DAT cells: cells expressing the DA transporter (CHO-DAT) using tritiated dopamine
